The text below walks through data of ChEMBL document CHEMBL1201862, “PubChem BioAssay data set” (2004).

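Where inhibition never reached the appropriate level, the endpoint shown equals the highest concentration tested. Otherwise, values were interpolated linearly from a five-concentration, 48-hour dose response in 96-well plates. Here, GI50 denotes the concentration required for 50% inhibition of growth.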 Activity calls are given as the source filed them. No stated cut-off is given here; in the data, active = GI50 up to about 1.1 µM and inactive = higher. Some results are limits rather than exact numbers.

Some test systems named below: SNB-75; IGROV-1; 786-0; K562; MDA-N; OVCAR-4; SF-539; MDA-MB-435; SW-620; HCT-116; HT-29; HCC 2998; SK-MEL-28; LOX IMVI; NCI-H226; SF-295; SR; OVCAR-3; CAKI-1; UACC-62.
Holding throughout (experiment): DTP human tumour cell line panel, 48 h

A word on the GI50: it is the concentration at which growth is held to half of that of the control. Take `CCOC(=O)C(NC(=O)c1ccccc1)(N1CCOCC1)C(F)(F)F` (stereo not given): the GI50 in the assay with SNB-75, in the assay with IGROV-1, in the assay on 786-0, with K562, with MDA-N and with OVCAR-4 was > 100 µM (inactive) in each case. Moreover, the GI50 in the assay on SF-539, in the assay with MDA-MB-435, in the assay on SW-620, with HCT-116, with HT-29 and in the assay on HCC 2998 was > 100 µM (inactive) each time. Besides, the GI50 with SK-MEL-28, with LOX IMVI, in the assay on NCI-H226, with SF-295, in the assay on SR and in the assay with OVCAR-3 was > 100 µM (inactive) each time. The GI50 in the assay with CAKI-1 and in the assay with UACC-62 was > 100 µM (inactive) in each case.

For `Cc1cc(O)c2c(c1)CC(O)C1=C2C(=O)c2c(O)ccc(OC3CC(O)C(OC4CC(OC5CCC(O)C(C)O5)C(O)C(C)O4)C(C)O3)c2C1=O` (stereo not given), the GI50 was 2.74 µM (inactive) with SNB-75; 1.47 µM (inactive) with IGROV-1; 1.42 µM (inactive) in the assay with 786-0; 1.63 µM (inactive) in the assay on K562; 1.84 µM (inactive) in the assay with MDA-N; 1.79 µM (inactive) in the assay on OVCAR-4. The GI50 in the assay on SF-539 is 1.85 µM (inactive); with MDA-MB-435, 1.03 µM (active); in the assay with SW-620, 0.518 µM (active); in the assay on HCT-116, 1.75 µM (inactive); in the assay with HT-29, 2.27 µM (inactive); in the assay with HCC 2998, 1.85 µM (inactive). The GI50 with SK-MEL-28 is 1.92 µM (inactive); with LOX IMVI, 1.33 µM (inactive); in the assay on NCI-H226, 1.5 µM (inactive); with SF-295, 2.34 µM (inactive); in the assay on SR, 0.324 µM (active); in the assay on OVCAR-3, 0.662 µM (active). The figures for the GI50 with CAKI-1 and in the assay on UACC-62 were 1.71 µM (inactive) and 1.68 µM (inactive), respectively.

Take `C=C1C(=O)OC2CC1C(OC(=O)/C=C/c1ccccc1)C/C(C)=C/CC/C(C)=C/CCC2(C)O` (stereo not given): the GI50 in the assay on SNB-75 was 1.43 µM (inactive); in the assay with IGROV-1, 1.56 µM (inactive); in the assay with 786-0 it was 1.31 µM (inactive); with K562, 0.906 µM (active); in the assay on MDA-N, 1.38 µM (inactive); with OVCAR-4, 0.82 µM (active). Besides, the GI50 in the assay on SF-539 was 1.46 µM (inactive); with MDA-MB-435, 1.46 µM (inactive); with SW-620, 1.04 µM (active); in the assay on HCT-116, 1.24 µM (inactive); in the assay on HT-29, 1.33 µM (inactive); in the assay with HCC 2998, 1.58 µM (inactive). The GI50 is 2.3 µM (inactive) in the assay with SK-MEL-28; 0.828 µM (active) with LOX IMVI; 1.64 µM (inactive) in the assay on NCI-H226; 1.56 µM (inactive) in the assay on SF-295; 0.778 µM (active) with SR; 1.52 µM (inactive) with OVCAR-3. For the same compound, the figures for the GI50 in the assay with CAKI-1 and in the assay on UACC-62 were 1.46 µM (inactive) and 1.95 µM (inactive), respectively.

Regarding `O=C(OCCNC(=O)N1CC1)OCCNC(=O)N1CC1`, the GI50 in the assay on SNB-75, in the assay on IGROV-1, in the assay on 786-0, with K562, in the assay with MDA-N and in the assay on OVCAR-4 was > 10 µM (inactive) throughout. Further, the GI50 in the assay with SF-539, with MDA-MB-435, in the assay on SW-620, with HCT-116, with HT-29 and in the assay on HCC 2998 was > 10 µM (inactive) throughout. The GI50 in the assay with SK-MEL-28, with LOX IMVI, in the assay with NCI-H226, in the assay with SF-295, in the assay on SR and with OVCAR-3 was > 10 µM (inactive) each time. For the same compound, the GI50 with CAKI-1 and with UACC-62 was > 10 µM (inactive) throughout.

Consider `COC(=O)C1C(=O)C(C(=O)OC)C2CCC1N2C` (stereo not given), for which the GI50 was 35.2 µM (inactive) in the assay on SNB-75; 22.9 µM (inactive) in the assay with IGROV-1; 33.7 µM (inactive) with 786-0; 31.8 µM (inactive) in the assay with K562; 23.8 µM (inactive) with MDA-N; 39.8 µM (inactive) with OVCAR-4. In addition, the GI50 with SF-539 was 33.5 µM (inactive); in the assay on MDA-MB-435 it was 24.8 µM (inactive); in the assay on SW-620, 36.5 µM (inactive); with HCT-116, 21.5 µM (inactive); with HT-29, 35 µM (inactive); in the assay on HCC 2998, > 100 µM (inactive). For the same compound, the GI50 in the assay with SK-MEL-28 is 34.4 µM (inactive); with LOX IMVI, 35.4 µM (inactive); with NCI-H226, 36.2 µM (inactive); in the assay with SF-295, > 100 µM (inactive); in the assay on SR it was 32.1 µM (inactive); in the assay on OVCAR-3, 18.3 µM (inactive). Besides, the GI50 in the assay with CAKI-1 is 92.5 µM (inactive); in the assay with UACC-62, 40.3 µM (inactive).

Turning to `Cc1ccc(S(=O)(=O)N2CCN(S(=O)(=O)c3ccc(C)cc3)CCN(S(=O)(=O)c3ccc(C)cc3)Cc3cc(Br)c(Br)cc3CN(S(=O)(=O)c3ccc(C)cc3)CC2)cc1`, the GI50 is 55.6 µM (inactive) in the assay with SNB-75; 85.5 µM (inactive) with IGROV-1; > 100 µM (inactive) in the assay with 786-0; > 100 µM (inactive) in the assay on K562; 66.8 µM (inactive) with MDA-N; 44.1 µM (inactive) with OVCAR-4. In addition, the GI50 in the assay on SF-539 was > 100 µM (inactive); with MDA-MB-435, > 100 µM (inactive); with SW-620, 97.7 µM (inactive); in the assay with HCT-116, > 100 µM (inactive); in the assay with HT-29, > 100 µM (inactive); with HCC 2998, > 100 µM (inactive). Moreover, the GI50 is > 100 µM (inactive) in the assay on SK-MEL-28; 79.4 µM (inactive) with LOX IMVI; 46.6 µM (inactive) in the assay on NCI-H226; > 100 µM (inactive) in the assay on SF-295; > 100 µM (inactive) in the assay with SR; > 100 µM (inactive) in the assay on OVCAR-3. For the same compound, the GI50 in the assay on CAKI-1 and with UACC-62 was > 100 µM (inactive) throughout.

On to `CC1(C)OC[C@@H](C[C@H](O)COCc2ccccc2)O1`, for which the GI50 with SNB-75, with IGROV-1, in the assay with 786-0, in the assay on K562, in the assay on MDA-N and with OVCAR-4 was > 100 µM (inactive) throughout. The GI50 with SF-539, in the assay on MDA-MB-435, in the assay on SW-620, in the assay on HCT-116, with HT-29 and in the assay with HCC 2998 was > 100 µM (inactive) in each case. In addition, the GI50 in the assay on SK-MEL-28, in the assay with LOX IMVI, with NCI-H226, in the assay with SF-295, in the assay with SR and with OVCAR-3 was > 100 µM (inactive) each time. Besides, the GI50 with CAKI-1 and in the assay with UACC-62 was > 100 µM (inactive) each time.

In the case of `Cc1cc(C)nc(NC(=S)Nc2cccc(Cl)c2)c1`, the GI50 in the assay with SNB-75 was > 100 µM (inactive); in the assay on IGROV-1 it was 16.1 µM (inactive); in the assay on 786-0, > 48.5 µM (inactive); with K562, > 100 µM (inactive); in the assay on MDA-N, > 100 µM (inactive); in the assay on OVCAR-4 it was > 36.6 µM (inactive). For the same compound, the GI50 with SF-539 is > 100 µM (inactive); in the assay on MDA-MB-435, > 100 µM (inactive); with SW-620, > 100 µM (inactive); in the assay on HCT-116, > 100 µM (inactive); in the assay with HT-29, > 83.4 µM (inactive); in the assay on HCC 2998, 65.5 µM (inactive). In addition, the GI50 in the assay on SK-MEL-28 is > 100 µM (inactive); in the assay on LOX IMVI it was > 100 µM (inactive); in the assay on NCI-H226, > 100 µM (inactive); with SF-295, > 100 µM (inactive); in the assay with SR it was 16.6 µM (inactive); in the assay on OVCAR-3 it was > 100 µM (inactive). Moreover, the GI50 in the assay with CAKI-1 is 20.3 µM (inactive); in the assay on UACC-62 it was > 100 µM (inactive).

Turning to `CN(C)c1ccc(/C=C2\N=C(NN)NC2=O)cc1`, the GI50 in the assay with SNB-75 is > 100 µM (inactive); with IGROV-1, 75.5 µM (inactive); in the assay on 786-0 it was 75.2 µM (inactive); in the assay on K562, 10.1 µM (inactive); in the assay on MDA-N it was 73.8 µM (inactive); with OVCAR-4, 79.4 µM (inactive). Also, the GI50 was 35.2 µM (inactive) in the assay with SF-539; 58.6 µM (inactive) in the assay with MDA-MB-435; 98.2 µM (inactive) with SW-620; 49.8 µM (inactive) in the assay with HCT-116; 31.3 µM (inactive) with HT-29; 80.9 µM (inactive) in the assay with HCC 2998. In addition, the GI50 in the assay with SK-MEL-28 is > 100 µM (inactive); with LOX IMVI it was 35.3 µM (inactive); in the assay on NCI-H226, 78.2 µM (inactive); with SF-295, > 100 µM (inactive); in the assay on SR, 23.4 µM (inactive); with OVCAR-3, 86.3 µM (inactive). Besides, the GI50 in the assay on CAKI-1 and in the assay on UACC-62 was > 100 µM (inactive) each time.

Take `CCN(CC)CCNC(=O)c1cn2c(ccc3sc4ccccc4c(=O)c32)n1`: the GI50 with SNB-75 was 16.3 µM (inactive); with IGROV-1 it was 5.38 µM (inactive); with 786-0, 4.1 µM (inactive); with K562, 6.28 µM (inactive); in the assay with MDA-N it was 14.1 µM (inactive); in the assay on OVCAR-4 it was 7.89 µM (inactive). Moreover, the GI50 with SF-539 is 10.8 µM (inactive); in the assay with MDA-MB-435, 16.7 µM (inactive); in the assay on SW-620 it was 6.25 µM (inactive); with HCT-116 it was 5.97 µM (inactive); with HT-29 it was 6.89 µM (inactive); in the assay with HCC 2998, 10.1 µM (inactive). The GI50 is 10.4 µM (inactive) in the assay on SK-MEL-28; 9.18 µM (inactive) in the assay with LOX IMVI; 13.3 µM (inactive) in the assay on NCI-H226; 10.5 µM (inactive) with SF-295; 1.25 µM (inactive) in the assay on SR; 12.8 µM (inactive) with OVCAR-3. In addition, the values for the GI50 in the assay with CAKI-1 and with UACC-62 were 10 µM (inactive) and 15.1 µM (inactive), respectively.
